Measured values as given in ChEMBL document CHEMBL3396981, “Synthesis and in vitro biological evaluation of 2-(phenylcarbamoyl)phenyl 4-substituted benzoates” (Bioorg Med Chem, 2015).
Converted amounts (≈) assume the structure as drawn.

Experiments:
[1] = tested on: Mycobacterium tuberculosis; test: Antimycobacterial activity against INH, RIF, rifabutin, streptomycin, ethambutol, ofloxacin-resistant Mycobacterium tuberculosis 7357/1998 after 14 days by microdilution method; type: functional; conditions: 7357/1998, 336 h
[2] = tested on: Mycobacterium tuberculosis; test: Antimycobacterial activity against INH, RIF, rifabutin, streptomycin, ethambutol, ofloxacin-resistant Mycobacterium tuberculosis 7357/1998 after 21 days by microdilution method; type: functional; conditions: 7357/1998, 504 h
[3] = tested on: Mycobacterium tuberculosis; test: Antimycobacterial activity against INH, RIF, rifabutin, streptomycin-resistant Mycobacterium tuberculosis 9449/2006 after 14 days by microdilution method; type: functional; conditions: 9449/2006, 336 h
[4] = tested on: Mycobacterium tuberculosis; test: Antimycobacterial activity against INH, RIF, rifabutin, streptomycin-resistant Mycobacterium tuberculosis 9449/2006 after 21 days by microdilution method; type: functional; conditions: 9449/2006, 504 h
[5] = tested on: Mycobacterium tuberculosis; test: Antimycobacterial activity against INH, RIF, rifabutin, streptomycin, ethambutol, ofloxacin-resistant Mycobacterium tuberculosis 234/2005 after 14 days by microdilution method; type: functional; conditions: 234/2005, 336 h
[6] = tested on: Mycobacterium tuberculosis; test: Antimycobacterial activity against INH, RIF, rifabutin, streptomycin, ethambutol, ofloxacin-resistant Mycobacterium tuberculosis 234/2005 after 21 days by microdilution method; type: functional; conditions: 234/2005, 504 h
[7] = tested on: Mycobacterium tuberculosis; test: Antimycobacterial activity against INH, RIF, rifabutin, streptomycin, ethambutol, clofazimine-resistant Mycobacterium tuberculosis Praha 1 after 14 days by microdilution method; type: functional; conditions: Praha 1, 336 h
[8] = tested on: Mycobacterium tuberculosis; test: Antimycobacterial activity against INH, RIF, rifabutin, streptomycin, ethambutol, clofazimine-resistant Mycobacterium tuberculosis Praha 1 after 21 days by microdilution method; type: functional; conditions: Praha 1, 504 h
[9] = tested on: Mycobacterium tuberculosis; test: Antimycobacterial activity against INH, RIF, rifabutin, streptomycin, ethambutol, ofloxacin, clofazimine-resistant Mycobacterium tuberculosis Praha 4 after 14 days by microdilution method; type: functional; conditions: Praha 4, 336 h
[10] = tested on: Mycobacterium tuberculosis; test: Antimycobacterial activity against INH, RIF, rifabutin, streptomycin, ethambutol, ofloxacin, clofazimine-resistant Mycobacterium tuberculosis Praha 4 after 21 days by microdilution method; type: functional; conditions: Praha 4, 504 h
[11] = tested on: Mycobacterium tuberculosis; test: Antimycobacterial activity against INH, RIF, rifabutin, streptomycin, ethambutol, ofloxacin, gentamicin, amikacin-resistant Mycobacterium tuberculosis Praha 131 after 14 days by microdilution method; type: functional; conditions: Praha 131, 336 h
[12] = tested on: Mycobacterium tuberculosis; test: Antimycobacterial activity against INH, RIF, rifabutin, streptomycin, ethambutol, ofloxacin, gentamicin, amikacin-resistant Mycobacterium tuberculosis Praha 131 after 21 days by microdilution method; type: functional; conditions: Praha 131, 504 h
[13] = Selectivity index, ratio of IC50 for human HepG2 cells to MIC for multidrug-resistant Mycobacterium tuberculosis; type: toxicity, cell-based; conditions: read-out: Selectivity Index

Compound	MIC [1]	MIC [2]	MIC [3]	MIC [4]	MIC [5]	MIC [6]	MIC [7]	MIC [8]	MIC [9]	MIC [10]	MIC [11]	MIC [12]	selectivity ratio [13]
O=C(Oc1ccc(Cl)cc1C(=O)Nc1ccc(C(F)(F)F)cc1)c1ccc([N+](=O)[O-])cc1	0.5 µM (≈ 0.232 µg/mL)	1 µM (≈ 0.465 µg/mL)	0.5 µM (≈ 0.232 µg/mL)	1 µM (≈ 0.465 µg/mL)	0.25 µM (≈ 0.116 µg/mL)	1 µM (≈ 0.465 µg/mL)	0.5 µM (≈ 0.232 µg/mL)	1 µM (≈ 0.465 µg/mL)	0.25 µM (≈ 0.116 µg/mL)	1 µM (≈ 0.465 µg/mL)	0.5 µM (≈ 0.232 µg/mL)	1 µM (≈ 0.465 µg/mL)	> 50
O=C(Oc1ccc(Cl)cc1C(=O)Nc1ccc(Cl)c(Cl)c1)c1ccc(Br)cc1	0.125 µM (≈ 0.0624 µg/mL)	0.125 µM (≈ 0.0624 µg/mL)	0.25 µM (≈ 0.125 µg/mL)	0.5 µM (≈ 0.25 µg/mL)	–	–	–	–	0.25 µM (≈ 0.125 µg/mL)	0.5 µM (≈ 0.25 µg/mL)	0.25 µM (≈ 0.125 µg/mL)	0.25 µM (≈ 0.125 µg/mL)	> 100
O=C(Oc1ccc(Cl)cc1C(=O)Nc1ccc(Cl)c(Cl)c1)c1ccc(C(F)(F)F)cc1	1 µM (≈ 0.489 µg/mL)	2 µM (≈ 0.977 µg/mL)	2 µM (≈ 0.977 µg/mL)	2 µM (≈ 0.977 µg/mL)	1 µM (≈ 0.489 µg/mL)	2 µM (≈ 0.977 µg/mL)	1 µM (≈ 0.489 µg/mL)	2 µM (≈ 0.977 µg/mL)	–	–	2 µM (≈ 0.977 µg/mL)	2 µM (≈ 0.977 µg/mL)	–
O=C(Oc1ccc(Cl)cc1C(=O)Nc1ccc(Cl)c(Cl)c1)c1ccccc1	0.5 µM (≈ 0.21 µg/mL)	0.5 µM (≈ 0.21 µg/mL)	0.5 µM (≈ 0.21 µg/mL)	1 µM (≈ 0.421 µg/mL)	0.25 µM (≈ 0.105 µg/mL)	0.5 µM (≈ 0.21 µg/mL)	0.5 µM (≈ 0.21 µg/mL)	0.5 µM (≈ 0.21 µg/mL)	–	–	0.5 µM (≈ 0.21 µg/mL)	1 µM (≈ 0.421 µg/mL)	–
O=C(Oc1ccc(Br)cc1C(=O)Nc1ccc(C(F)(F)F)cc1)c1ccccc1	0.25 µM (≈ 0.116 µg/mL)	0.5 µM (≈ 0.232 µg/mL)	1 µM (≈ 0.464 µg/mL)	1 µM (≈ 0.464 µg/mL)	0.5 µM (≈ 0.232 µg/mL)	0.5 µM (≈ 0.232 µg/mL)	1 µM (≈ 0.464 µg/mL)	1 µM (≈ 0.464 µg/mL)	–	–	0.5 µM (≈ 0.232 µg/mL)	1 µM (≈ 0.464 µg/mL)	–
Cc1ccc(C(=O)Oc2ccc(Cl)cc2C(=O)Nc2ccc(Cl)c(Cl)c2)cc1	1 µM (≈ 0.435 µg/mL)	1 µM (≈ 0.435 µg/mL)	1 µM (≈ 0.435 µg/mL)	1 µM (≈ 0.435 µg/mL)	2 µM (≈ 0.869 µg/mL)	2 µM (≈ 0.869 µg/mL)	1 µM (≈ 0.435 µg/mL)	1 µM (≈ 0.435 µg/mL)	1 µM (≈ 0.435 µg/mL)	1 µM (≈ 0.435 µg/mL)	1 µM (≈ 0.435 µg/mL)	1 µM (≈ 0.435 µg/mL)	> 25
O=C(Oc1ccc(Br)cc1C(=O)Nc1ccc(C(F)(F)F)cc1)c1ccc([N+](=O)[O-])cc1	0.5 µM (≈ 0.255 µg/mL)	0.5 µM (≈ 0.255 µg/mL)	0.5 µM (≈ 0.255 µg/mL)	0.5 µM (≈ 0.255 µg/mL)	–	–	–	–	0.5 µM (≈ 0.255 µg/mL)	0.5 µM (≈ 0.255 µg/mL)	0.25 µM (≈ 0.127 µg/mL)	0.5 µM (≈ 0.255 µg/mL)	> 100
Cc1ccc(C(=O)Oc2ccc(Br)cc2C(=O)Nc2ccc(C(F)(F)F)cc2)cc1	1 µM (≈ 0.478 µg/mL)	1 µM (≈ 0.478 µg/mL)	1 µM (≈ 0.478 µg/mL)	1 µM (≈ 0.478 µg/mL)	2 µM (≈ 0.957 µg/mL)	2 µM (≈ 0.957 µg/mL)	1 µM (≈ 0.478 µg/mL)	1 µM (≈ 0.478 µg/mL)	1 µM (≈ 0.478 µg/mL)	1 µM (≈ 0.478 µg/mL)	1 µM (≈ 0.478 µg/mL)	1 µM (≈ 0.478 µg/mL)	> 25
Cc1ccc(C(=O)Oc2ccc(Cl)cc2C(=O)Nc2ccc(C(F)(F)F)cc2)cc1	1 µM (≈ 0.434 µg/mL)	1 µM (≈ 0.434 µg/mL)	1 µM (≈ 0.434 µg/mL)	1 µM (≈ 0.434 µg/mL)	2 µM (≈ 0.868 µg/mL)	2 µM (≈ 0.868 µg/mL)	1 µM (≈ 0.434 µg/mL)	1 µM (≈ 0.434 µg/mL)	1 µM (≈ 0.434 µg/mL)	1 µM (≈ 0.434 µg/mL)	1 µM (≈ 0.434 µg/mL)	1 µM (≈ 0.434 µg/mL)	> 25
O=C(Oc1ccc(Cl)cc1C(=O)Nc1ccc(C(F)(F)F)cc1)c1ccc(C(F)(F)F)cc1	0.5 µM (≈ 0.244 µg/mL)	1 µM (≈ 0.488 µg/mL)	1 µM (≈ 0.488 µg/mL)	1 µM (≈ 0.488 µg/mL)	0.5 µM (≈ 0.244 µg/mL)	1 µM (≈ 0.488 µg/mL)	0.5 µM (≈ 0.244 µg/mL)	0.5 µM (≈ 0.244 µg/mL)	–	–	0.5 µM (≈ 0.244 µg/mL)	1 µM (≈ 0.488 µg/mL)	–
O=C(Oc1ccc(Br)cc1C(=O)Nc1ccc(C(F)(F)F)cc1)c1ccc(Br)cc1	0.5 µM (≈ 0.272 µg/mL)	1 µM (≈ 0.543 µg/mL)	0.5 µM (≈ 0.272 µg/mL)	1 µM (≈ 0.543 µg/mL)	–	–	–	–	0.25 µM (≈ 0.136 µg/mL)	0.5 µM (≈ 0.272 µg/mL)	0.5 µM (≈ 0.272 µg/mL)	1 µM (≈ 0.543 µg/mL)	> 50
O=C(Oc1ccc(Br)cc1C(=O)Nc1ccc(C(F)(F)F)cc1)c1ccc(C(F)(F)F)cc1	1 µM (≈ 0.532 µg/mL)	1 µM (≈ 0.532 µg/mL)	1 µM (≈ 0.532 µg/mL)	1 µM (≈ 0.532 µg/mL)	0.5 µM (≈ 0.266 µg/mL)	1 µM (≈ 0.532 µg/mL)	0.5 µM (≈ 0.266 µg/mL)	1 µM (≈ 0.532 µg/mL)	–	–	0.5 µM (≈ 0.266 µg/mL)	1 µM (≈ 0.532 µg/mL)	–
O=C(Oc1ccc(Cl)cc1C(=O)Nc1ccc(Cl)c(Cl)c1)c1ccc([N+](=O)[O-])cc1	0.25 µM (≈ 0.116 µg/mL)	0.5 µM (≈ 0.233 µg/mL)	0.25 µM (≈ 0.116 µg/mL)	0.5 µM (≈ 0.233 µg/mL)	–	–	–	–	0.25 µM (≈ 0.116 µg/mL)	0.5 µM (≈ 0.233 µg/mL)	0.25 µM (≈ 0.116 µg/mL)	0.25 µM (≈ 0.116 µg/mL)	> 100
O=C(Oc1ccc(Cl)cc1C(=O)Nc1ccc(C(F)(F)F)cc1)c1ccc(Br)cc1	1 µM (≈ 0.499 µg/mL)	1 µM (≈ 0.499 µg/mL)	1 µM (≈ 0.499 µg/mL)	1 µM (≈ 0.499 µg/mL)	2 µM (≈ 0.997 µg/mL)	2 µM (≈ 0.997 µg/mL)	1 µM (≈ 0.499 µg/mL)	1 µM (≈ 0.499 µg/mL)	–	–	1 µM (≈ 0.499 µg/mL)	1 µM (≈ 0.499 µg/mL)	> 25
O=C(Oc1ccc(Cl)cc1C(=O)Nc1ccc(C(F)(F)F)cc1)c1ccccc1	0.25 µM (≈ 0.105 µg/mL)	0.5 µM (≈ 0.21 µg/mL)	0.5 µM (≈ 0.21 µg/mL)	0.5 µM (≈ 0.21 µg/mL)	0.25 µM (≈ 0.105 µg/mL)	0.25 µM (≈ 0.105 µg/mL)	0.5 µM (≈ 0.21 µg/mL)	0.5 µM (≈ 0.21 µg/mL)	–	–	0.25 µM (≈ 0.105 µg/mL)	0.5 µM (≈ 0.21 µg/mL)	–
